Article PMC9911797, “Novel TLR7/8 agonists promote activation of HIV-1 latent reservoirs and human T and NK cells” (Frontiers in Microbiology, 2023)
pEC50: −log10 of the molar value.

Assays:
[1] = system: PBMCs from HIV-1 well-suppressed patients; assay: Latent HIV-1 activation in PBMCs of well-suppressed patients (HIV-1 RNA copies in supernatant, RT-qPCR); type: cell-based, human
Text: To study the potential of novel TLR7/8 in activating latent HIV-1 reservoir, TLR7/8 dual agonists D018 and C142 and TLR8-specific agonist B-130a were mixed with PBMCs from six well-suppressed patients whose viral load in the plasma was less than 50 copies/ml, and CD4 counts were more than […] for more than 6 years.
TLR7/8 agonists activated PBMCs from seven well-suppressed patients with the addition of anti-TNF-α monoclonal antibody or IgG1-control monoclonal antibody, respectively. D018, B-130a, and the positive control PMA + ION increased the levels of HIV-1 RNA copies in the supernatant and the concentration of TNF-α concomitantly.
To measure the HIV viral load, viral RNA from supernatants was extracted by MagaBio Plus Viral DNA / RNA Purification Kit (BIOER). The reverse-transcription and analysis of RNA copies were performed using the HIV-1 Real-time PCR detection kit (BIOER).

PBMCs = assay: Inflammatory cytokine release from PBMCs (Legend-plex); type: cell-based, human; conditions: PBMC culture supernatant 48 h after stimulation
Description: Then, a total of 13 human inflammatory cytokines and chemokines (IL-1β, IFN-α2, IFN-γ, TNF-α, CCL2, IL-6, CXCL8, IL-10, IL-12p70, IL-17A, IL-18, IL-23, and IL-33) were measured in the culture supernatant 48 h after stimulation and compared with two healthy donors. Only 8 out of 13 became detectable and largely fell into the proinflammatory cytokines (IL-1β, IL-6, IL-18, IL-23, and TNF-α), Th1-and Th2-type cytokines (IL-10 and IFN-γ), and type I (IFN-α2) and type II (IFN-γ) interferons (Figures 2B–I).
The supernatants from PBMCs culture were collected and stored at-20°C until analysis. For the Multi-cytokines assay, the Legend-plex Human Inflammation Panel 1 kit (Biolegend) was used according to the manual. Thirteen human inflammatory cytokines/chemokines were measured, including IL-1β, IFN-α2, IFN-γ, TNF-α, MCP-1 (CCL2), IL-6, IL-8 (CXCL8), IL-10, IL-12p70, IL-17A, IL-18, IL-23, and IL-33.

[2] = system: PBMCs from healthy donors; assay: Surface activation markers on immune cells of healthy donor PBMCs (flow cytometry); type: cell-based, human; conditions: 1 μM, 24 h
Text: TLR family is essential in connecting innate immunity with acquired immunity in fighting against infection. It was then studied whether the identified TLR7/8 agonists could activate cell populations within PBMC, thereby potentiating their effector functions. […] The representative diagram of the gating strategy for each immune cell is shown in Supplementary Figure S5. All tested TLR7/8 agonists activated CD69 and NKG2D expression on CD56^bright and CD56^dim NK cells (Figures 6A–D), as well as CD69 and CD25 expression on CD4+ and CD8+ T cells (Figures 6E–H).
Then cells were collected and washed in FACS buffer (PBS + 2%FBS). Cells were incubated by fluorescence antibodies at 4°C for 30 min. For T cells, CD3-PE-Cy7 (Biolegend), CD4-PE (BD), CD8-FITC (Biolegend), CD25-BV421 (Biolegend), CD69-BV510 (Biolegend). For NK cells, CD16-PE (Biolegend), CD56-APC (Biolegend), CD69-BV510 (Biolegend), NKG2D-BV421 (Biolegend). For monocytes, CD14-PE-Cy7 (Invitrogen), CD40-APC-Cy7 (Biolegend) HLR-DR-BV510 (Biolegend). For dendritic cells, anti-human lineage cocktail-APC (Biolegend), CD11c-PE-Cy7 (Biolegend), CD80-BV510 (Biolegend), CD86-AF488 (Biolegend).

NF-κB p65 in U1 cells = assay: Nuclear phospho-p65-S536 in U1 cells (western blot); conditions: 1 μM, 30 min, 37°C
Description: For measuring NF-kB p65 and phosphor-p65 S536, 5 × 10^6 U1 cells were stimulated by 1 μM TLR7/8 agonists D018 (7/8), B-130a (8), GS9620 (7), and DMSO (negative control) for 30 min. Nuclear proteins were extracted by NE-PER Nuclear and Cytoplasmic Extraction Reagents (Pierce) and measured the concentration using BCA protein measure kit (Thermo).
Equal amounts of extracts were loaded on the 10% polyacrylamide gel SDS-PAGE. Then proteins were electro-transferred to nitrocellulose membranes 300 mA for 90 min and incubated with blocking buffer (5% nonfat dry milk and 0.1% Tween 20 in TBS) for 1 h at room temperature. NF-kB p65, phosphorylate p65-s529, and PCNA (as the control of nuclear protein) were separately detected by NF-κB p65 Mouse mAb (CST), Phospho-NF-κB p65 Ser536 Rabbit mAb (CST) and PCNA Rabbit mAb (CST) in blocking buffer overnight at 4°C. After washing 5 times in TBST (1 × TBS + 0.1% Tween), the membranes were incubated with anti-mouse IgG (H + L) HRP (Promega) and anti-rabbit IgG (H + L) HRP (Promega) for 1 h at room temperature. After washing 5 times in TBST, membranes were incubated with ECL detection reagents (Bio-red) and then developed in Bio-red imager.

[3] = system: J-LAT cells co-cultured with MDDCs; assay: J-LAT and MDDC co-culture assay (GFP+ cells and TNF-α); conditions: 1 μM, 48 h
[4] = system: U1 monocytic cell line (latent HIV-1); assay: HIV-1 p24 production in latently infected U1 cells (ELISA)
[5] = system: J-LAT CD4 T cell line (latent HIV-1); assay: J-LAT activation by supernatant of agonist-stimulated healthy donor PBMCs (GFP+ cells, FACS); conditions: 48 h, highest concentration 16 μM

For `CCCCNc1nc(N)nc2ccc(Cc3ccc(CN(C)C)cc3)nc12` [D018], the “HIV-1 RNA copies in the supernatant and TNF-α concentration” value ([1]; PBMCs from seven well-suppressed patients, IgG1-control antibody vs anti-TNF-α) was “increased”, the “HIV-1 RNA copies in the supernatant” value ([1]; patient PBMCs (n = 6), 96 h at 37°C) was “most potent” and the “release of inflammatory cytokines” value (PBMCs) was “either equivalent (IL-6, IL-10, IL-23, and IFN-γ) or higher (IL-1β, IL-18, and TNF-α) than the commercially available R848”. The “CD69/NKG2D on NK cells and CD69/CD25 on CD4+ and CD8+ T cells” value [2] was “most potent”, the “nuclear phos-p65-S536” value (NF-κB p65 in U1 cells) was “significant increase” and the “GFP+ J-LAT cells and soluble TNF-α in MDDC co-culture” value [3] was “marked increase”. For the same molecule, the “p24 production after TLR8 or MyD88 knockdown” value ([4]; 1 μM, TLR8- or MyD88-shRNA U1 vs sham-knockdown) was “essentially abolished the p24 production”, the pEC50 ([4]; Homo sapiens, read-out: EC50 of p24 production in U1) was 7.15 and the “GFP-positive J-LAT cells, PBMC supernatant” value [5] was “most potent”.
